Here are results for 1 compound from patent publication US12606543B2, “Indole derivatives as serotonergic agents useful for the treatment of disorders related thereto” (priority 2023, dated 2026).

The EC50 is the concentration that produces a half-maximal response. In general, IC50 refers to the midpoint of a concentration-inhibition curve. Broadly, the Ki is a measure of affinity in units of concentration, obtained from inhibition or displacement.

The target in series [1] is T1, human 5-HT2B receptor (Homo sapiens, UniProt P41595). Briefly: Human 5-HT2B FLIPR calcium mobilization assay. In kind it is cell-based. Further details: expressed in transfected cells; host or cells: HEK293. Conditions: calcium mobilization FLIPR. (In general: Calcium assays in cells follow changes in intracellular calcium, usually with a dye or a luminescent sensor.)

Series [2] in a line: Pharmacokinetic studies in rat (i.v.). The conditions noted are these: male, Sprague-Dawley, plasma; for concentration at 0.25 h / concentration at 1 h / concentration at 4 h: intravenous, dose per Dose column (1.32-2.09 mg/kg); for half-life / AUC(0-t): iv, rat plasma, i.v., dose per Dose column; for half-life: estimated from 2 points only. In kind it is in vivo. The method, boiled down:
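Male Sprague-Dawley rats dosed by tail-vein i.v. injection in 5% Tween-80 in saline; saphenous blood drawn at […] and 4 h. Plasma levels by LC-MS/MS; t1/2 and AUC0-tlast from non-compartmental analysis (linear up/log down).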

Series [3] addresses T1, human 5-HT2B receptor. Nature of the series: Human 5-HT2B radioligand binding assay ([3H]-LSD). The conditions noted are these: [3H]-LSD displacement, cell membrane, 37° C., 90 min.
[4] abbreviates: first animal (R07/R04/R01/R10), read-out: Plasma concentration.
[5] abbreviates: mean of 3 rats, read-out: Plasma concentration, Mean ± SD.
Setting [6] is: second animal (R08/R05/R02/R11), read-out: Plasma concentration.
[7] abbreviates: third animal (R09/R06/R03/R12), read-out: Plasma concentration.

Like-named read-outs stand apart in the source and are kept apart here.

T1 sequence (P41595 whole entry): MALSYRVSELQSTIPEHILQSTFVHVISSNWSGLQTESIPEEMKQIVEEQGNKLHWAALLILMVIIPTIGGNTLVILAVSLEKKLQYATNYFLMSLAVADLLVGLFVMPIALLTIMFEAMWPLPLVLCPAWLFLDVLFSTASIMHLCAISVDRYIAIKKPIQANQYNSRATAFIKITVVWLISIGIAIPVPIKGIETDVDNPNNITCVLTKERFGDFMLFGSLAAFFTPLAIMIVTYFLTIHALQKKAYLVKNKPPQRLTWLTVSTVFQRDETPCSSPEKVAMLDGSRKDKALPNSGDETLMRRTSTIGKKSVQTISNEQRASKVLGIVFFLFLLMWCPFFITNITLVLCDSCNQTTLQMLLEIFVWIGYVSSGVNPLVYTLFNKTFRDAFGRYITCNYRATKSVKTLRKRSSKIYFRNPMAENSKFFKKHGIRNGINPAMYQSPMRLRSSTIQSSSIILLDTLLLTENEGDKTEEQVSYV

Take `[2H]C([2H])(c1c[nH]c2ccc(OCCCCN3C(=O)c4ccccc4C3=O)cc12)[C@H]1CCCN1C([2H])([2H])[2H]` [(R) I-244, (R)-2-(4-((3-((1-(Methyl-d3)pyrrolidin-2-yl)methyl-d2)-1H-indol-5-yl)oxy)butyl)isoindoline-1,3-dione]: the “Emax (% of serotonin)” value at human 5-HT2B receptor [1] (HEK293 cells, relative to maximum response of serotonin) is given as 92.75 % of serotonin. Besides, the EC50 at human 5-HT2B receptor [1] (stably transfected HEK293 cells, read-out: EC50) worked out at 2.5 nM. The concentration at 0.25 h in series [2] (setting [4]) was 252 ng/mL; in series [2] (setting [5]), 292 ± 59.4 ng/mL; in series [2] (setting [6]), 360 ng/mL; in series [2] (setting [7]), 263 ng/mL. Besides, the concentration at 1 h in series [2] (setting [4]) was 132 ng/mL; in series [2] (setting [5]), 130 ± 21.6 ng/mL; in series [2] (setting [6]) it was 150 ng/mL; in series [2] (setting [7]), 107 ng/mL. The concentration at 4 h in series [2] (setting [4]) stood at 20.7 ng/mL; in series [2] (setting [5]), 22 ± 1.63 ng/mL; in series [2] (setting [6]), 23.8 ng/mL; in series [2] (setting [7]), 21.4 ng/mL. Also, the half-life in series [2] (first animal (R07/R04/R01/R10), read-out: Apparent t1/2 (converted)) was 1.06 h; in series [2] (mean of 3 rats, read-out: Apparent t1/2, Mean ± SD (converted)) it was 1.05 ± 0.0494 h; in series [2] (second animal (R08/R05/R02/R11), read-out: Apparent t1/2 (converted)), 1 h; in series [2] (third animal (R09/R06/R03/R12), read-out: Apparent t1/2 (converted)), 1.1 h. Also, the AUC(0-t) was 390 ng·h/mL in series [2] (first animal (R07/R04/R01/R10), read-out: AUC0-tlast); 415 ± 65.7 ng·h/mL in series [2] (mean of 3 rats, read-out: AUC0-tlast, Mean ± SD); 490 ng·h/mL in series [2] (second animal (R08/R05/R02/R11), read-out: AUC0-tlast); 366 ng·h/mL in series [2] (third animal (R09/R06/R03/R12), read-out: AUC0-tlast). Further, the IC50 at human 5-HT2B receptor [3] (read-out: 5-HT2B, IC50) was 21.4 nM. The Ki on human 5-HT2B receptor [3] (read-out: 5-HT2B, Ki) came to 11.1 nM.
